Assay results published in patent US9266817B2, “Catecholamine derivatives for obesity and neurological disorders” (EMORY UNIVERSITY, priority 2009, dated 2016).
Blank lines part the entries; values can stand above or below the compound they belong to.

Experiments:
TrkB [1] = biological target: T1, TrkB (Rattus norvegicus, UniProt Q63604); experiment: Immunoblotting of TrkB phosphorylation in primary cortical neurons treated with catecholamines; format: cell-based
T1 construct: endogenous in cells; host or cells: primary rat cortical and hippocampal neurons
T1 sequence (Q63604 32-821): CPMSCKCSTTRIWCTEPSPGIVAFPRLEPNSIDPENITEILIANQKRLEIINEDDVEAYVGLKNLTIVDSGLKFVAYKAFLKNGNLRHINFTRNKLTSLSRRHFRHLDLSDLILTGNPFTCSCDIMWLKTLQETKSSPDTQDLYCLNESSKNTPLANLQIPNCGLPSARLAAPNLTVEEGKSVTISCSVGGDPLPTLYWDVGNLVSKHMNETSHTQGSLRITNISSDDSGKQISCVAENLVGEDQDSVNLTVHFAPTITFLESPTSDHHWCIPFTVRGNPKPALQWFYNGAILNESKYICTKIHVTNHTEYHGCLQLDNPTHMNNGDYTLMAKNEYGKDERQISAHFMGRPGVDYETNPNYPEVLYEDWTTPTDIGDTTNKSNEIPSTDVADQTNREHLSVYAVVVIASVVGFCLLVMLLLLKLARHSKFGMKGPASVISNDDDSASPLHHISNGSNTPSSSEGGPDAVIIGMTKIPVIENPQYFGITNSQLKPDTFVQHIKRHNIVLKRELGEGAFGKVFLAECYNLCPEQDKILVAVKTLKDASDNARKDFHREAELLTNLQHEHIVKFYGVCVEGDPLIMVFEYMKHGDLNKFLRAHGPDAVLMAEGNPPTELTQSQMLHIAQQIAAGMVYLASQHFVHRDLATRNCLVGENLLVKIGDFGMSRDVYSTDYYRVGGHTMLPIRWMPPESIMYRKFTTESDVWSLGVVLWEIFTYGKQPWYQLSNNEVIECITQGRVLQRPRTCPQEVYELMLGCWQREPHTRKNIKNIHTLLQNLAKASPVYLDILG
Description: Primary cultured rat cortical neurons were prepared as follows. E17 rat pups were decapitated and cortex was extirpated, cross chopped and suspended by pipetting for separation in 5% fetal calf serum (FCS), 5% horse serum (HS) DMEM. The cell suspension was then centrifuged at 250×g for 5 min. This operation was repeated. Cells were seeded into polyethyleneimine-coated 10 cm^2 dishes and 12-well plates including coated-coverslips and incubated at 37° C. in 5% CO2/95% air. After 3 hours, the culture medium was changed to Neurobasal containing B-27 supplement (Invitrogen; Carlsbad, Calif.) and incubated for 4 days. For maintenance, half of the culture medium was changed to fresh Neurobasal/B27 in every 4 days. After 1 week, the dished cultured neurons were ready for use.
To explore whether monoamine neurotransmitters, including catecholamines (see, e.g., FIG. 1), could stimulate TrkB activation, hippocampal neurons were treated with 300 nM of catecholamines, serotonin, and melatonin for 30 min.

BDNF = experiment: Quantitative analysis of BDNF in mouse brain during drug treatment; format: in vivo, mice; conditions: during the drug treatment
TrkA = biological target: T2, TrkA (Mus musculus, UniProt Q3UFB7); experiment: TrkA activation in mouse brain after DOPS (control); format: in vivo; conditions: wild-type and DBH -/- mice
T2 construct: from tissue; host or cells: mouse brain
T2 sequence (Q3UFB7 34-799): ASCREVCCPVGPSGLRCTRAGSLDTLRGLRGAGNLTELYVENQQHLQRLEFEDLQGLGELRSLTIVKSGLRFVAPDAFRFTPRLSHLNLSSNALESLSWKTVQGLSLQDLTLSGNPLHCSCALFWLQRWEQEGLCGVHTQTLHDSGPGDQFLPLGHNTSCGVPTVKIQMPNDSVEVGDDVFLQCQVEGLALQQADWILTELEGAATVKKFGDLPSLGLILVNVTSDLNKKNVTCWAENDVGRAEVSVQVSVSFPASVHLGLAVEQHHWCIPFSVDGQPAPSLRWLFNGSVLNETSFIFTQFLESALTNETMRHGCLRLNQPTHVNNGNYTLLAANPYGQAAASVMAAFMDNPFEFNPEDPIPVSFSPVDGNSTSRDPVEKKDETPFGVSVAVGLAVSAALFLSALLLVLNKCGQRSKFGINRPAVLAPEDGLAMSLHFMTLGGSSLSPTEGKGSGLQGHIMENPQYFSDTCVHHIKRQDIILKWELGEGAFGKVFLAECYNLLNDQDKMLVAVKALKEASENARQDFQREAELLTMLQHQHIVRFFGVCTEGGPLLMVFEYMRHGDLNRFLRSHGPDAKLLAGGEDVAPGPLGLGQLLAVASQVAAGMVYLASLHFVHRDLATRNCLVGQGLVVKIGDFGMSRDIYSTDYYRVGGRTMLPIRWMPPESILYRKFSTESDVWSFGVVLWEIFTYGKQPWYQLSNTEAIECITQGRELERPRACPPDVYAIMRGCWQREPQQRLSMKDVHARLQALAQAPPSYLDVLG
Description: Mice lacking dopamine β-hydroxylase (DBH) are unable to synthesize noradrenaline (essential for mouse fetal development) or adrenaline and die in utero. Administration of DOPS, which can be converted to noradrenaline in the absence of DBH, rescued DBH −/− mice from dying. Mature DBH −/− mice can live without supplemental of DOPS. […] In wild-type control mice, DOPS induced TrkB activation in a time dependent manner with the maximal effect at 12 hours. In contrast, DOPS-triggered TrkB activation occurred at 1 hour, peaked at 5 hours, and decreased at 12 hours in DBH −/− mice. As a control, TrkA was not activated.

TrkB [2] = biological target: T3, TrkB (Mus musculus, UniProt P15209, F616A); format: in vivo; conditions: L-DOPA 50 mg/kg, DOPS 100 mg/kg, 1NMPP1 50 μM
T3 construct: from tissue; host or cells: mouse brain
T3 sequence (P15209 32-821 F616A): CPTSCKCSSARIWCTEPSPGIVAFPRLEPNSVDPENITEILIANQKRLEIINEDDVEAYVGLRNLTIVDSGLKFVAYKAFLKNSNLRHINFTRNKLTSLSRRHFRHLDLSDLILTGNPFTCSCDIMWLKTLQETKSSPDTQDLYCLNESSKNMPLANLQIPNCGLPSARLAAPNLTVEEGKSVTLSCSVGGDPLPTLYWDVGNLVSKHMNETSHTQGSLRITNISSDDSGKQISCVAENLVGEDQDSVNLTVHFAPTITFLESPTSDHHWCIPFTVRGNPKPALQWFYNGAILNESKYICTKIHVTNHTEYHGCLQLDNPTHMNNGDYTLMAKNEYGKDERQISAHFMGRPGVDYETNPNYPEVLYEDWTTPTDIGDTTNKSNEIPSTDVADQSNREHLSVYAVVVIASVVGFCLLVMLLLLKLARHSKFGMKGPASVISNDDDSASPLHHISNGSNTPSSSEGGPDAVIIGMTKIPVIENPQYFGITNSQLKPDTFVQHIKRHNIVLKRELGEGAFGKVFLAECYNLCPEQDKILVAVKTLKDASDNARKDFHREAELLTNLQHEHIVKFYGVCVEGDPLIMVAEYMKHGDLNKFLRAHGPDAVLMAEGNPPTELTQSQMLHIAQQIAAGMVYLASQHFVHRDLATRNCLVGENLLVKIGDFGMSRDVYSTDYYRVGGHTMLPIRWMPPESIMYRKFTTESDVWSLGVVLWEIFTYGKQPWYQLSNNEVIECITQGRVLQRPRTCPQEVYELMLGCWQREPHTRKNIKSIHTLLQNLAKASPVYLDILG
Description: The DOPS concentration was 20 mg/ml, the vitamin C concentration was 2 mg/ml, and the benserazide concentration was 5 mg/ml. The vitamin C prevents oxidation of the DOPS, and the benserazide is a peripheral inhibitor of AADC and restricts the production of NE from DOPS to the brain. The compounds were added to a tube, and 20 μl of 10 M HCl was added to each ml of DOPS solution. The appropriate amount of water was added to the tube, and then HCl was added to achieve the desired volume. For example, to make 1 mL of a DOPS solution, 20 mg DOPS, 2 mg vitamin C, and 5 mg benserazide were added to a tube, followed by 980 μL of water and 20 μL of 10 M HCl. The solution was vortexed until all DOPS was dissolved. The DOPS solution was injected subcutaneously in a volume of 50 μl/g of mouse. The appropriate amount of DOPS solution was pipetted into a clean tube, followed by the amount of 10 M NaOH required to exactly neutralize the HCl. The solution was then shaken. The amount of 10 M NaOH is the weight of the mouse in microliters. For example, for a 20 g mouse, pipet 1 ml of the DOPS solution is pipetted into a tube and 20 μL of 10 M NaOH is added. For a 30 g mouse, 1.5 mL of the DOPS solution is pipetted into a tube and 30 μl of 10 M NaOH is added. Two to four month-old TrkBF616A mice were pretreated with 1NMPP1 in drinking water (50 μM) 1 day before L-DOPA (50 mg/kg) or DOPS (100 mg/kg) intraperitoneal injection. At times of 2 hours and 5 hours after drug administration, the L-DOPA or DOPS-treated mice were sacrificed, respectively. The brain lysates were prepared and analyzed by immunoblotting against anti-phospho-TrkB Y816 and TrkA Y794 antibodies.
TrkB F616A mice were pretreated with 1NMPP1 (50 μM) before L-DOPA or DOPS administration.

TrkB [3] = format: in vivo
TrkB [4] = biological target: TrkB (Homo sapiens, UniProt Q16620); experiment: TrkB activation by catecholamines in TrkB-transfected HEK293 cells pretreated with OCT3 inhibitor; format: cell-based; set-up: expressed in transfected cells; host or cells: HEK293; conditions: 2 μM, 30 minutes pretreatment, catecholamines 15 minutes
Sequence of TrkB (Homo sapiens, UniProt Q16620) (Q16620 32-822, species assumed): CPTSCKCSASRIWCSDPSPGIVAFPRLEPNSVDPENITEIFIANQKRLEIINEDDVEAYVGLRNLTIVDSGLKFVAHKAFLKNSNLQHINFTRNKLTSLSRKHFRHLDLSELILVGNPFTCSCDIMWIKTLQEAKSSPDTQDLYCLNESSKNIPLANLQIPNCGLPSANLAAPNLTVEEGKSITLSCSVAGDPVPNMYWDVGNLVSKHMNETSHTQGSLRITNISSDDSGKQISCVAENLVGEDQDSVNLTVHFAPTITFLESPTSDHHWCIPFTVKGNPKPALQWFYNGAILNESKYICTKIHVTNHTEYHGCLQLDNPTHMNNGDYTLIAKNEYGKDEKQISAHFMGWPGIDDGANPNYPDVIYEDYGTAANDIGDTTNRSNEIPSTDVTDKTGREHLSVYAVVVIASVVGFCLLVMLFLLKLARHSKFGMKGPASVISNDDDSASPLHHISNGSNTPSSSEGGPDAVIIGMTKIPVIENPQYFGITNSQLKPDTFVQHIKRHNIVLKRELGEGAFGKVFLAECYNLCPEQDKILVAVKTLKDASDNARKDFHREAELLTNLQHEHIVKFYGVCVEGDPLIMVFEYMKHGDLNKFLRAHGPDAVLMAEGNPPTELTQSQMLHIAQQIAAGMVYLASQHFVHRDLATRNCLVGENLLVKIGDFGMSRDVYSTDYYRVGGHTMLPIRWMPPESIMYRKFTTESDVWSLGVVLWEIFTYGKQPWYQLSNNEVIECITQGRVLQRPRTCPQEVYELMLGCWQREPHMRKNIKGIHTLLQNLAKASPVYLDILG
Description: HEK293 cells were transfected with TrkB and pretreated with the OCT3 inhibitor decynium (2 μM) for 30 minutes, followed by stimulation with catecholamines for 15 minutes. The cell lysates were monitored by immunoblotting with anti-p-TrkB-Y-816. […] An equal amount of TrkB was expressed in each sample (FIG. 22A, lower panel).

Structure (SMILES): N[C@H](C(=O)O)[C@H](O)c1ccc(O)c(O)c1 [DOPS, dihydroxyphenylserine]
TrkB activation in primary cultured neurons (TrkB [1]): rapidly induced TrkB activation
BDNF in mouse brain (BDNF): not significantly altered
TrkA activation in mouse brain (TrkA): not activated
TrkB tyrosine phosphorylation/activation in mice (TrkB [2]): provoked evident TrkB activation
TrkB activation in BDNF -/- cortex (TrkB [3]; BDNF conditional knockout mice, compared to vehicle control): strongly triggered TrkB activation
Time at which TrkB activation occurred (TrkB [3]; DBH -/- mice, intraperitoneal): 1 h
Time at which TrkB activation peaked (TrkB [3]; DBH -/- mice, intraperitoneal): 5 h
TrkB activation at 12 hours (TrkB [3]; DBH -/- mice, intraperitoneal): decreased
Time of maximal effect on TrkB activation (TrkB [3]; wild-type control mice, intraperitoneal): 12 h

Effect of OCT3 inhibitor on TrkB activation by catecholamines (TrkB [4]): failed to inhibit
Structure (SMILES): CCN1/C(=C/c2ccc3ccccc3[n+]2CC)C=Cc2ccccc21.[I-] [decynium]
